Laboratory results: PubChem BioAssay (NCI)
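GI50 is the concentration that inhibits growth by half. At the TGI there is no net growth.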

Key:
Assay in all cases: NCI-60 cell line screen, 384-well format
[1] = tested on: TK-10 renal
[2] = tested on: LOX IMVI melanoma
[3] = tested on: SF-295 CNS
[4] = tested on: HCT-15 colon
[5] = tested on: KM12 colon
[6] = tested on: 786-0 renal
[7] = tested on: HS 578T breast
[8] = tested on: SF-268 CNS
[9] = tested on: M14 melanoma
[10] = tested on: HCT-116 colon
[11] = tested on: SK-MEL-28 melanoma
[12] = tested on: MDA-MB-435 melanoma
[13] = tested on: DU-145 prostate
[14] = tested on: NCI-H322M lung
[15] = tested on: UACC-62 melanoma
[16] = tested on: HT29 colon
[17] = tested on: U251 glioblastoma
[18] = tested on: K-562 leukemia
[19] = tested on: SF-539 CNS
[20] = tested on: T-47D breast
[21] = tested on: IGROV1 ovarian
[22] = tested on: SNB-75 CNS
[23] = tested on: HL-60(TB) leukemia
[24] = tested on: MCF7 breast
[25] = tested on: HOP-62 NSCLC
[26] = tested on: A498 renal
[27] = tested on: MDA-MB-468 breast
[28] = tested on: MDA-MB-231 breast
[29] = tested on: HCC-2998 colon
[30] = tested on: OVCAR-4 ovarian
[31] = tested on: SW-620 colon
[32] = tested on: SN12C renal
[33] = tested on: A549 NSCLC
[34] = tested on: NCI-H226 lung
[35] = tested on: NCI-H23 lung
[36] = tested on: OVCAR-3 ovarian
[37] = tested on: BT-549 breast
[38] = tested on: HOP-92 NSCLC
[39] = tested on: NCI-H460 NSCLC
[40] = tested on: MOLT-4 leukemia
[41] = tested on: SK-OV-3 ovarian
[42] = tested on: OVCAR-8 ovarian
[43] = tested on: COLO 205 colon
[44] = tested on: RPMI-8226 leukemia
[45] = tested on: NCI/ADR-RES ovarian
[46] = tested on: UO-31 renal
[47] = tested on: PC-3 prostate
[48] = tested on: SK-MEL-5 melanoma
[49] = tested on: NCI-H522 lung
[50] = tested on: EKVX NSCLC
[51] = tested on: UACC-257 melanoma
[52] = tested on: MALME-3M melanoma
[53] = tested on: OVCAR-5 ovarian
[54] = tested on: RXF 393 renal
[55] = tested on: ACHN renal
[56] = tested on: CCRF-CEM leukemia
[57] = tested on: CAKI-1 renal
[58] = tested on: SNB-19 CNS

COc1c(Nc2ncc(Cl)c(N[C@@H]3[C@H]4C=CC(C4)[C@@H]3C(N)=O)n2)ccc2c1CC[C@@H](N1CCOCC1)CC2
GI50 [1]: 2290 nM | TGI [1]: 7860 nM | GI50 [2]: 1330 nM | TGI [2]: 2680 nM | GI50 [3]: 1950 nM | TGI [3]: 10300 nM | GI50 [4]: 2150 nM | TGI [4]: 10100 nM | GI50 [5]: 1680 nM | TGI [5]: 10400 nM | GI50 [6]: 1480 nM | TGI [6]: 2940 nM | GI50 [7]: 1560 nM | TGI [7]: 2970 nM | GI50 [8]: 206 nM | TGI [8]: 2500 nM | GI50 [9]: 817 nM | TGI [9]: 2570 nM | GI50 [10]: 1270 nM | TGI [10]: 2620 nM | GI50 [11]: 1540 nM | TGI [11]: 5220 nM | GI50 [12]: 1700 nM | TGI [12]: 8330 nM | GI50 [13]: 2880 nM | TGI [13]: 12300 nM | GI50 [14]: 2750 nM | TGI [14]: 11500 nM | GI50 [15]: 688 nM | TGI [15]: 2920 nM | GI50 [16]: 1240 nM | TGI [16]: 2580 nM | GI50 [17]: 1760 nM | TGI [17]: 6500 nM | GI50 [18]: 1780 nM | TGI [18]: 3680 nM | GI50 [19]: 1250 nM | TGI [19]: 2570 nM | GI50 [20]: 1940 nM | TGI [20]: 5310 nM | GI50 [21]: 1400 nM | TGI [21]: 9590 nM | GI50 [22]: 1290 nM | TGI [22]: 2770 nM | GI50 [23]: 1550 nM | TGI [23]: 3010 nM | GI50 [24]: 1750 nM | TGI [24]: 11900 nM | GI50 [25]: 1700 nM | TGI [25]: 5360 nM | GI50 [26]: 1950 nM | TGI [26]: 10600 nM | GI50 [27]: 1280 nM | TGI [27]: 2990 nM | GI50 [28]: 1540 nM | TGI [28]: 6140 nM | GI50 [29]: 1240 nM | TGI [29]: 3090 nM | GI50 [30]: 7050 nM | TGI [30]: 19600 nM | GI50 [31]: 1660 nM | TGI [31]: 3250 nM | GI50 [32]: 1190 nM | TGI [32]: 5330 nM | GI50 [33]: 1270 nM | TGI [33]: 5570 nM | GI50 [34]: 676 nM | TGI [34]: 4670 nM | GI50 [35]: 1680 nM | TGI [35]: 5940 nM | GI50 [36]: 3110 nM | TGI [36]: 11800 nM | GI50 [37]: 1620 nM | TGI [37]: 3160 nM | GI50 [38]: 1300 nM | TGI [38]: 3260 nM | GI50 [39]: 1960 nM | TGI [39]: 5260 nM | GI50 [40]: 311 nM | TGI [40]: 1430 nM | GI50 [41]: 1780 nM | TGI [41]: 7550 nM | GI50 [42]: 2700 nM | TGI [42]: 9480 nM | GI50 [43]: 1110 nM | TGI [43]: 2690 nM | GI50 [44]: 1210 nM | TGI [44]: 3000 nM | GI50 [45]: 1970 nM | TGI [45]: 4660 nM | GI50 [46]: 1560 nM | TGI [46]: 4900 nM | GI50 [47]: 2270 nM | TGI [47]: 8980 nM | GI50 [48]: 1370 nM | TGI [48]: 6790 nM | GI50 [49]: 1440 nM | TGI [49]: 3700 nM | GI50 [50]: 1500 nM | TGI [50]: 4530 nM | GI50 [51]: 1510 nM | TGI [51]: 3530 nM | GI50 [52]: 866 nM | TGI [52]: 2660 nM | GI50 [53]: 1350 nM | TGI [53]: 4580 nM | GI50 [54]: 1580 nM | TGI [54]: 3170 nM | GI50 [55]: 2160 nM | TGI [55]: 9250 nM | GI50 [56]: 1510 nM | TGI [56]: 3030 nM | GI50 [57]: 1350 nM | TGI [57]: 2780 nM | GI50 [58]: 5100 nM | TGI [58]: 17400 nM
